The values that follow are results of earlier work, collected in US7271157B2, “A1 adenosine receptor agonists” (CV Therapeutics, Inc., priority 2004, dated 2007).

Series [1] has as its target T1, A1-adenosine receptor (Homo sapiens, UniProt P30542).
T1 sequence (P30542 1-326): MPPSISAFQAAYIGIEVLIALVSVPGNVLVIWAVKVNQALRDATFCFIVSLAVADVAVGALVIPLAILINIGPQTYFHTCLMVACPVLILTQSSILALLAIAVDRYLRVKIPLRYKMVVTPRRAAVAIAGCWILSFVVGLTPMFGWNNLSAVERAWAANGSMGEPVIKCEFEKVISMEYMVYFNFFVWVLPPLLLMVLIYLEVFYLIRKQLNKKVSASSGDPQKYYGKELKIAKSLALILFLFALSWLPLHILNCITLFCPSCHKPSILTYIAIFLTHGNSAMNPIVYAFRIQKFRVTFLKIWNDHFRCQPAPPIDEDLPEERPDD

Series [2] concerns seizures induced by DMCM. The following applies: experimental models of epilepsy.

For the compound `OC1CCCC1Nc1ncnc2c1ncn2[C@@H]1O[C@H](CSc2ccccc2F)[C@@H](O)[C@H]1O` (mixture of isomers) [(4S,5S,2R,3R)-5-[(2-fluorophenylthio)methyl]-2-{6-[(2-hydroxycyclopentyl)amino]-purin-9-yl}oxolane-3,4-diol], the “A1-adenosine receptor agonist character and selectivity” value in series [1] was “highly selective partial A1-adenosine receptor agonist”.

Regarding `Nc1ncnc2c1ncn2[C@@H]1O[C@H](CO)[C@@H](O)[C@H]1O` [adenosine], the half-life entry was “less than 10 sec”.

For the compound `Cc1ccccc1CNc1ncnc2c1ncn2[C@@H]1O[C@H](CO)[C@@H](O)[C@H]1O` [metrifudil], the “anticonvulsant activity against DMCM-induced seizures” value in series [2] is “potent anticonvulsant”.
